A short description of data set [1]: Solubility at saturation of salts and crystalline forms, buffered solution pH 6.0. Type of data set: physicochemical. Conditions: aqueous buffer pH 6.0, after 24 hours of stirring, European Pharmacopoeia criteria. On the procedure:
The purpose of this example is to determine the solubility characteristics of different crystalline forms and salts of fenofibric acid, with a view to administration by the oral mucosal route, in order to treat or forestall patients of liver diseases, such as fatty liver disease.
The solubilisation kinetics are determined by placing fenofibric acid samples at an excess in an aqueous buffered solution at pH 6.0, equivalent to salivary pH. Samples are taken after 0.5, 1, 2, 4, 6, 12 and 24 hours. They are analysed by HPLC after centrifugation and filtration of the samples on a 0.45 μm PTFE filter.
The samples are received from several Indian and Chinese suppliers. Fenofibric acid form II is obtained from a suspension of fenofibrate (ester) in isopropanol.
The results in terms of solubility at saturation (after 24 hours of stirring) are given in the table below and are expressed as per the criteria of the European Pharmacopoeia in force at the time of the tests. The melting points are obtained by DSC (endothermic peak, onset measurement).

The nature of data set [2]: Aqueous phase solubility as a function of pH / medium. Type of data set: physicochemical.
Data set [3] in a line: Dissolution kinetics, USP type II paddle. Type of data set: physicochemical. The conditions noted are these: for fenofibric acid dissolved: FaSSIF and FeSSIF media. The method, then: The applicant studied the dissolution profile of several batches of fenofibric acid received from several suppliers. The starting material batches include different granulometric characteristics including one standard grade (non-micronised) and several micronised batches.
The batches of fenofibric acid were prepared in various pharmaceutical forms including the following excipients: hypromellose, milk protein concentrate, corn starch, Lactose monohydrate (0.4 mg/50 mg of active ingredient), sodium lauryl sulphate as surfactant, magnesium stearate, and talc as a flow agent required during production.
Dissolution tests were carried out on most of the formulation in media such as acetate buffer at […] and purified water. Similarly, the rings were tested in […] media simulating fed and fasting conditions, with addition of enzymes (media referred respectively as FeSSIF and FaSSIF) were also tested after the 50 and 100 mg doses. The USP type II paddle system was retained for the tests with 1000 ml of volume, 37° C. and the samples, taken at 0, 2, 5, 10, 15, 20, 30, 45 and 60 minutes, were analysed by HPLC without replenishing the media.

A short description of data set [4]: Solubility in 50:50 binary mixture with a surfactant. Type of data set: physicochemical.
Data set [5] has as its system mouse model of NASH. The experiment in a line: In vivo mouse model of non-alcoholic steatohepatitis. The conditions noted are these: mice on high-fat feed and fructose water, per os once daily. The method, then: Fenofibric acid is studied at 2 doses and administered per os once daily. […] The number of male mice is 60 for the curative part of the study. They follow the normal light cycle, and are divided into enriched ventilated cages, after a one-week acclimatisation period. The mice are fed with high-fat content feed and fructose-enriched tap water. The mice are treated with the references or with the test formulation according to 2 doses, with daily administration per os for about 2 months. […] At different weeks of treatment, blood is collected to measure the blood glucose level, insulin, total cholesterol and triglyceride level, as well as the ALT and AST levels. After the final collection, the mice are sacrificed to measure the total hepatic cholesterol, triglycerides and fatty acid levels. Liver samples are also collected for histological analysis and the NAS score/index.

The subject of data set [6] is immortalised human cells. The data set is described as follows: In vitro cellular model in NASH/NAFLD: intracellular lipid droplet content. Type of data set: cell-based. The conditions noted are these: enriched medium, increasing concentrations, 24 hours. The source says:
The applicant decided to explore in vitro approaches to test fenofibric acid as a medicinal product inhibiting progression of non-alcoholic fatty liver disease/steatohepatitis. In this field, only a few data obtained in NASH/NAFLD using cellular models have been published, whereas for other liver diseases, the research models and means are more numerous and more studied. In general, immortalised cell lines and primary cell cultures are widely used to develop in vitro models for research. The immortalised primary cells are candidate cells selected for the in vitro study due to the stable phenotype thereof, but also due to a culture method that is simple and standardised to carry out. The immortalised human cells were cultured in an enriched medium containing increasing fenofibric acid concentrations. The purpose of the study consisted of measuring the intracellular lipid droplet content. The entire staining procedure is conducted at ambient temperature while protecting the samples from direct light. The images were acquired with a fluorescence microscope. The intracellular lipid droplet content was determined by labelling. […] This trend is all the more noteworthy at the highest fenofibric acid concentration wherein the quantity and size of the droplets decreased in relation to that observed with the lowest dose.

The nature of data set [7]: In vitro oral penetration study, Franz type diffusion cells. The conditions noted are these: 37° C., different concentrations and pH 4.5-7.4. Type of data set: in vitro ADME, pig. The method, then:
One of the preferred modes of administration is the oral mucous membrane route. In order to achieve this, the applicant prepared fenofibric acid solutions from samples provided by the supplier Harman Finochem (India). The in vitro penetration of the fenofibric acid formulation is evaluated using Franz type diffusion cells at 37° C., a system routinely used to evaluate the in vitro penetration of compounds through the skin, but with the oral mucous membrane as the membrane in this instance.
The applicant chose pig oral tissue because it has a non-keratinised morphology, relatively similar to the human oral epithelium (Gandhi, R. B. and Robinson. Adv Drug Deli Rev, 13:43-74, 1994). […]
The receptor compartment is filled with pH 7.4 buffer at 37° C. and the donor compartment with micronised fenofibric acid solution at 37° C. of different concentrations (from 0.2 mg/ml) with a pH also adjusted to pH 7.4 or a solution of fenofibric acid (0.5 mg/ml) in buffer solutions of different pH (4.5, 6.0, 6.8 and 7.4). Samples are taken from the receptor compartment at a predetermined time interval (2, 5, 10, 15, 30, 60, 90, 120, 150 and 180 minutes), replaced by the same volume of buffer and subsequently analysed using the HPLC method.
The quantity of fenofibric acid presented in the […] compartment is determined as a function of time. […]

Data on 2 compounds can be found in patent US20190247343A1, “USE OF FENOFIBRIC ACID IN THE TREATMENT OF HEPATIC DISEASES” (GENCOD, priority 2016, published 2019).

Structures are written as SMILES. In brackets after ≈: the same amount, converted by molar mass. Entries after “also recorded” stand apart in the source; their conditions may differ.

With `CC(C)(Oc1ccc(C(=O)c2ccc(Cl)cc2)cc1)C(=O)O` [Fenofibric acid form II], in data set [1], the Solubility at saturation result is on record as “Slightly soluble”.
Regarding `CC(C)(Oc1ccc(C(=O)c2ccc(Cl)cc2)cc1)C(=O)O` [fenofibric acid, 2-(4-(4-chlorobenzoyl)phenoxy)-2-methylpropanoic], the solubility in data set [2] (0.01M sodium lauryl sulphate, aqueous with cosolvent or surfactant or cyclodextrin) was 0.09 mg/mL (≈ 282 µM); in data set [2] (0.1M sodium lauryl sulphate, aqueous with cosolvent or surfactant or cyclodextrin), 0.81 mg/mL (≈ 2540 µM); in data set [2] (0.1N HCl, simulated gastric fluid), 0.002 mg/mL (≈ 6.27 µM); in data set [2] (aqueous buffer, Phosphate buffer pH = 4.5) it was 0.04 mg/mL (≈ 125 µM); in data set [2] (aqueous buffer, Phosphate buffer pH = 5.5) it was 0.33 mg/mL (≈ 1040 µM); in data set [2] (aqueous buffer, Phosphate buffer pH = 6.5), 1.06 mg/mL (≈ 3330 µM). For the same compound, the solubility in data set [2] (purified water, water) is 0.02 mg/mL (≈ 62.7 µM). Also, in data set [2] (greatest at pH values closest to neutrality), the “solubility as a function of pH” value is on record as “increases as a function of pH”. The fenofibric acid dissolved result is “over 80%” in data set [3] (after 10 minutes) and “entirety” in data set [3] (after 30 minutes). Also, the “dissolution of the active ingredient alone” value in data set [3] (after 60 minutes, paddle, 1000 ml, 37° C.) is reported as “totally dissolved”. In addition, the Solubility in water in data set [4] (surfactant Cremophor EL, 50:50 binary mixture) was 56 mg/g; in data set [4] (surfactant Cremophor RH40, 50:50 binary mixture), 59 mg/g; in data set [4] (surfactant Labrasol, 50:50 binary mixture), 55 mg/g; in data set [4] (surfactant Solutol HS15, 50:50 binary mixture), 60 mg/g; in data set [4] (surfactant Tween 80, 50:50 binary mixture), 61 mg/g. Also, the “increase in the triglyceride level” value in data set [5] is on record as “significantly inhibit the increase”. In addition, the “increase in the weight of the liver” value in data set [5] was “significantly inhibit the increase”. In addition, the figures for the “plasma ALT concentration” value in data set [5] and in data set [5] (listed as Fenofibric acid) were “decreased substantially” and “notably reduced”, respectively. Further, the “development of fatty liver disease (macroscopic and microscopic examination of the liver)” value in data set [5] (about 2 months) was “prevented the development of fatty liver disease”. Besides, in data set [5] (liver histology), the “increase in the fatty liver disease activity score” value is listed as “significantly inhibit the increase”. Besides, the “increase in the fibrotic zones” value in data set [5] (liver histology) is given as “significantly inhibit the increase”. Besides, the “intracellular lipid droplet content” value in data set [6] is listed as “dose-dependent fat reduction”. For the same compound, the “penetration through the porcine oral mucous membrane” value in data set [7] is reported as “noteworthy penetration; also recorded: rapidly absorbed”.

As usually defined, the solubility is the concentration that dissolves in the medium under given conditions.
